Consider 1 compound from ChEMBL document CHEMBL5131515, “Identification of Pyridinyltriazine Derivatives as Potent panFGFR Inhibitors against Gatekeeper Mutants for Overcoming Drug Resistance” (J Med Chem, 2022).

One series addresses CYP2C9 (Homo sapiens, UniProt P11712). As to the kind of experiment: Inhibition of CYP2C9 (unknown origin) assessed as remaining activity at 10 uM relative to control. Format: ADME. As to conditions: read-out: Activity.
Series [1] relates to BaF3. As to the kind of experiment: Antiproliferative activity against mouse BaF3 cells harboring TEL-FGFR4 V550E mutant assessed as cell growth inhibition by CellTiter-Glo assay. The series is classed as functional.
Series [2] deals with AN3-CA. As to the kind of experiment: Antitumor activity against human AN3-CA cells xenografted in BALB/c mouse assessed as tumor mean volume at 10 mg/kg, po qd for 15 days measured once every 2 days (reference value: 100%). Format: functional. As to conditions: time 15 day.
For a further series, the system named is KMS-11. As to the kind of experiment: Antiproliferative activity against human KMS-11 cells harboring FGFR3 Y373C mutant assessed as cell growth inhibition by CellTiter-Glo assay. Format: functional. In general terms: In ATP-based viability assays light output follows the ATP content of the culture.
The next series concerns J82. As to the kind of experiment: Antiproliferative activity against human J82 cells harboring FGFR3 K652E mutant assessed as cell growth inhibition by CellTiter-Glo assay. The series is classed as functional.
The subject of series [3] is AN3-CA. As to the kind of experiment: Antiproliferative activity against human AN3-CA cells harboring FGFR2 K310R/N549K mutant assessed as cell growth inhibition by CellTiter-Glo assay. The series is classed as functional.
A short description of series [4]: Stability in human liver microsomes assessed as parent compound remaining at 1 uM incubated for 30 mins. The series is classed as ADME, Microsome. Particulars: read-out: Stability. For orientation: Microsomes from liver hold many membrane-bound enzymes, among them those of drug oxidation.
In series [5] the test system is BaF3. As to the kind of experiment: cells. Format: functional. Particulars: Mus musculus.
Series [6] is described as follows: Stability in mouse liver microsomes assessed as parent compound remaining at 1 uM incubated for 30 mins. Format: ADME, Microsome. Particulars: read-out: Stability.
The target in a further series is CYP3A4 (Homo sapiens, UniProt P08684). As to the kind of experiment: Inhibition of CYP3A4 (unknown origin) assessed as remaining activity at 10 uM relative to control. The series is classed as ADME. As to conditions: read-out: Activity.
Series [7] is described as follows: Stability in dog liver microsomes assessed as parent compound remaining at 1 uM incubated for 30 mins. As to conditions: read-out: Stability. The series is classed as ADME, Canis lupus familiaris, Microsome.
Series [8] concerns BaF3. As to the kind of experiment: Antitumor activity against mouse BaF3 cells harboring TEL-V555M-FGFR3 mutant xenografted in BALB/c mouse assessed as tumor mean volume at 30 mg/kg, ip qd for 15 days measured once every 2 days (reference value: 100%). Format: functional. As to conditions: time 15 day.
The test system of series [9] is BaF3. As to the kind of experiment: Antiproliferative activity against mouse BaF3 cells harboring TEL-FGFR3 assessed as cell growth inhibition by CellTiter-Glo assay. Format: functional.
Series [10] has as its system BaF3. As to the kind of experiment: Antiproliferative activity against mouse BaF3 cells harboring TEL-FGFR4 N535K mutant assessed as cell growth inhibition by CellTiter-Glo assay. Format: functional.
In a further series the target is T1, CYP1A2 (Homo sapiens, UniProt P05177).
T1 sequence (P05177 whole entry): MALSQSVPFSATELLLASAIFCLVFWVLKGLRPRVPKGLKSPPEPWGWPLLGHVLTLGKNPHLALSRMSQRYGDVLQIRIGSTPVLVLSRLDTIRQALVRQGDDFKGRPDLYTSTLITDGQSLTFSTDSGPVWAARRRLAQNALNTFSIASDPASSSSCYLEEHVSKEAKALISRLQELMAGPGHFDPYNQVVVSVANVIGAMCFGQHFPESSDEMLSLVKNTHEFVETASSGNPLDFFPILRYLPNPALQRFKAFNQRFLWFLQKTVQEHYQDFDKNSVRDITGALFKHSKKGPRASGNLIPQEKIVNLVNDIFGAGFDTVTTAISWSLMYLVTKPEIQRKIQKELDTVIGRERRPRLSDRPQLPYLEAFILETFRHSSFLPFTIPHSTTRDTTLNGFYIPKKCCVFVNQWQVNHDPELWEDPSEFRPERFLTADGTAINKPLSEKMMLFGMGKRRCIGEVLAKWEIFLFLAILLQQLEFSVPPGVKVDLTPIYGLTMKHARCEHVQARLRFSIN
As to the kind of experiment: Inhibition of CYP1A2 (unknown origin) assessed as remaining activity at 10 uM relative to control. As to conditions: read-out: Activity. Format: ADME.

Series [11] deals with Fibroblast growth factor receptor 2 (Homo sapiens), P21802 [V564F]. As to the kind of experiment: Inhibition of FGFR2 V564F mutant (unknown origin) at 10 uM by radiometric kinase activity assay relative to control.
Series [12] concerns BaF3. As to the kind of experiment: Antitumor activity against mouse BaF3 cells harboring TEL-V555M-FGFR3 mutant xenografted in BALB/c mouse assessed as tumor mean volume at 30 mg/kg, po qd for 15 days measured once every 2 days (reference value: 100%). The series is classed as functional. As to conditions: time 15 day.
Series [13] concerns BaF3. As to the kind of experiment: Antitumor activity against mouse BaF3 cells harboring TEL-V555M-FGFR3 mutant xenografted in BALB/c mouse assessed as tumor growth inhibition at 30 mg/kg, ip qd for 15 days measured once every 2 days. Format: functional. Particulars: BaF3, 360 h, time 15 day.
Series [14] can be described thus: Antiproliferative activity against mouse BaF3 cells assessed as cell growth inhibition by CellTiter-Glo assay. As to conditions: BaF3 cells.
Series [15] is described as follows: Stability in rat liver microsomes assessed as parent compound remaining at 1 uM incubated for 30 mins. The series is classed as ADME, Microsome. As to conditions: read-out: Stability.
In a further series the target is CYP2C19 (Homo sapiens, UniProt P33261). As to the kind of experiment: Inhibition of CYP2C19 (unknown origin) assessed as remaining activity at 10 uM relative to control. The series is classed as ADME. Particulars: read-out: Activity.
The target in the next series is CYP2D6 (Homo sapiens, UniProt P10635). As to the kind of experiment: Inhibition of CYP2D6 (unknown origin) assessed as remaining activity at 10 uM relative to control. Format: ADME. Particulars: read-out: Activity.
Sequence of CYP2D6 (P10635 whole entry): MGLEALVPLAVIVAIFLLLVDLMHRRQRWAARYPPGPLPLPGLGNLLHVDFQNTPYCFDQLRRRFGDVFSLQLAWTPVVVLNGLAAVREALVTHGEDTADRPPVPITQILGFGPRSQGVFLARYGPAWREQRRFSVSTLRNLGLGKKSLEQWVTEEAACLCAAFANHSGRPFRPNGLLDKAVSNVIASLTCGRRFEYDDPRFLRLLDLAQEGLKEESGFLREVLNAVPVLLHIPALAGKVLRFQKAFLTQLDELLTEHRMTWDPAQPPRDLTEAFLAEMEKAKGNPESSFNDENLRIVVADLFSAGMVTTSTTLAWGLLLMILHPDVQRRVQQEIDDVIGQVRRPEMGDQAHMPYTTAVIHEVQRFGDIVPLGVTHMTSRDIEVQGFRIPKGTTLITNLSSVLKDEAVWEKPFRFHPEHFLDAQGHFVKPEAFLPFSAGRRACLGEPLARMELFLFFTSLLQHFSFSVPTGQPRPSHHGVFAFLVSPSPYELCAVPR

Sequence of CYP2C9 (P11712 whole entry): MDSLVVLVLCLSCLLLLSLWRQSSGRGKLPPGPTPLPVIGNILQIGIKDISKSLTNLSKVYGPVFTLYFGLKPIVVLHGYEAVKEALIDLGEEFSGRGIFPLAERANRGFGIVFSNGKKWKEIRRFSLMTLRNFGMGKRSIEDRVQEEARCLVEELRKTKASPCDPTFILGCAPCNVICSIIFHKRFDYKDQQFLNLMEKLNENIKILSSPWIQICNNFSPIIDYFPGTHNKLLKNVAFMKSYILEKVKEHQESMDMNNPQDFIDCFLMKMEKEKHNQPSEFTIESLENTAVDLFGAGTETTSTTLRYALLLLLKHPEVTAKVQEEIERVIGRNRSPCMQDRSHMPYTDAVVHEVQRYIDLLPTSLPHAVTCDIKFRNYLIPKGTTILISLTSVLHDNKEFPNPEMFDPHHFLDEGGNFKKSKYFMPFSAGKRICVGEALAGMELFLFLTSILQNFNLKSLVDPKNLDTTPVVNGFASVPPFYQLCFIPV
Sequence of Fibroblast growth factor receptor 2 (Homo sapiens), P21802 [V564F] (P21802 whole entry V564F): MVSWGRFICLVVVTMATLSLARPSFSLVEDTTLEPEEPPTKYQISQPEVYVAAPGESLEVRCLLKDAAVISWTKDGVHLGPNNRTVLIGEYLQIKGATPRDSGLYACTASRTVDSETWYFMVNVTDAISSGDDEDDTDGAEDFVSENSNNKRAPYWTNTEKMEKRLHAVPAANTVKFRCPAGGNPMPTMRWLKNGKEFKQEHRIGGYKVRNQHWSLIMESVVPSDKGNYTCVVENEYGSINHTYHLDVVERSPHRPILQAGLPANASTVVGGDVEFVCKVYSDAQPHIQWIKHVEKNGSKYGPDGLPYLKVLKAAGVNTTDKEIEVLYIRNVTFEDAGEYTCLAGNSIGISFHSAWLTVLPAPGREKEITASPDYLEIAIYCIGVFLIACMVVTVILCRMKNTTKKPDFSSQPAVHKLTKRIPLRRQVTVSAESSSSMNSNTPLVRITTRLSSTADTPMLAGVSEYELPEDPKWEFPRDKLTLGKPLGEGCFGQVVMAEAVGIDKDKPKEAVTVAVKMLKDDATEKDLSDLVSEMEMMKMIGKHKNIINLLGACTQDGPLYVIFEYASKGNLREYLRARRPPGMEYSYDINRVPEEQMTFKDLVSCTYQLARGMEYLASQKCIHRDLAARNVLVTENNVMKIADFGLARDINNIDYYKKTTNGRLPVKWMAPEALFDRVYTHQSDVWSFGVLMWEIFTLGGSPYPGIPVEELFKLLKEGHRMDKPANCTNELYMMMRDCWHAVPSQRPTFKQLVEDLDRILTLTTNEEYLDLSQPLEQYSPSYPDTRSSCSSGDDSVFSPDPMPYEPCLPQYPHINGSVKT
Sequence of CYP2C19 (P33261 whole entry): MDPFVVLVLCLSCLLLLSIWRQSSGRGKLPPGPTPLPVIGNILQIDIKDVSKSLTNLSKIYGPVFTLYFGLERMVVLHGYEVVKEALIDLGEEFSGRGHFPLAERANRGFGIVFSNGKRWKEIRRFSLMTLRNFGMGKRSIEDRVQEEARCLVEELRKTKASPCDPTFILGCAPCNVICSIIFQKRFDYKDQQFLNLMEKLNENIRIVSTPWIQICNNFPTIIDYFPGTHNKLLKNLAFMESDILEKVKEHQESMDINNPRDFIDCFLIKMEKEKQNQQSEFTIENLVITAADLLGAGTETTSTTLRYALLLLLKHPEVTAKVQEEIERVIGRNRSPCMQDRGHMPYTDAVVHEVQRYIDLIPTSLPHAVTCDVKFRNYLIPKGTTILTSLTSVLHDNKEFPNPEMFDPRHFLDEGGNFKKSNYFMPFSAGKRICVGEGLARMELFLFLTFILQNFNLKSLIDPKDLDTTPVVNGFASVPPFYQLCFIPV
Sequence of CYP3A4 (P08684 whole entry): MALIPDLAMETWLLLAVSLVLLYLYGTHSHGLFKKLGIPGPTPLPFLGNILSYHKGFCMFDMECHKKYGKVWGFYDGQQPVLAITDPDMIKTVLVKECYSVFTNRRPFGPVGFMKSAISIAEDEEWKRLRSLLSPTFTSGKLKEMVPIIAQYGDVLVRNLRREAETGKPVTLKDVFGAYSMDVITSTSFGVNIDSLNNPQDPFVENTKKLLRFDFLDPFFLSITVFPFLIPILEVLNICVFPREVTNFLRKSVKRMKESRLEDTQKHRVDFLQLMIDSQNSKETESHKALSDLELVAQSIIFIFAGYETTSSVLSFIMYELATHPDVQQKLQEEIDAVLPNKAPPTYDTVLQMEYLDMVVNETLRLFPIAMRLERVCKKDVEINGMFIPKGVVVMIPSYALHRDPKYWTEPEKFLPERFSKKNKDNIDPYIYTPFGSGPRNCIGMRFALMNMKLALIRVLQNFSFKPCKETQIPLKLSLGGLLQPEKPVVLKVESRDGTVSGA

One may read the GI50 as the concentration that inhibits growth by half. A word on the inhibition: it is the change of the read-out against control, counted positive when it falls. Lower therefore signals a weak effect. The term inhibition in vivo denotes the share of the control response that was lost under treatment. For `CCN1CCN(c2ccc(Nc3cc(N(C)C(=O)Nc4c(Cl)c(OC)cc(OC)c4Cl)ncn3)cc2)CC1` [INFIGRATINIB], the activity at 10 µM was 88.4% on CYP2C9; 83% at CYP3A4; 77.3% on CYP1A2; 64.9% at CYP2C19; 94.9% on CYP2D6. Also, the GI50 stood at 4000 nM with BaF3 [1]; 220 nM in the series on KMS-11; 3340 nM in the series on J82; 39 nM with AN3-CA [3]; 2600 nM in the series with BaF3 [5]; 5 nM in the series on BaF3 [9]. Further, the GI50 (with BaF3 [10]; in series [14]) was over 5000 nM throughout. The Activity worked out at 14.1% with AN3-CA [2], 44.74% in the series on BaF3 [8] and 49% in the series on BaF3 [12]. Moreover, the remaining at 0.5 h, 1 µM in series [4] is 77%; in series [6], 22.3%; in series [7], 8.1%; in [15] it was 10.9%. This compound also registered an inhibition in series [11] of under 50%. Moreover, the inhibition in vivo at 30 mg/kg in the series on BaF3 [13] came to 60.2%.
